The record followed here is patent publication US20030055106A1, “Therapeutic uses of peroxometallic compounds” (priority 1999, published 2003).

Data set [1] deals with PC3 prostate cancer cells. Kind of data set: In vitro collagen-fibrin tumor progression model, PC-3. The format is cell-based, human. The following applies: renewed daily, 15 days. As for the experimental part: FIG. 11: Illustration of the antitumor activity of bpV(phen) in vitro using PC3 prostate cancer cells. Collagen gels containing the PC3 cells were prepared according to the method of Esdale and Bard (1972). Briefly, stock collagen solution (3.5 mg/ml in acetic acid 0.02N; Rat tail) was added to a mixture composed of culture medium (5×), fetal bovine serum (FBS), bicarbonate (0.26M), and was neutralized with 0.1N NaOH. A cell suspension (1.42×10^6 cells/ml) was mixed into the collagen-medium mixture to obtain a final concentration of 2.5×10^5 cells/ml.
A DMEM medium, having a normal concentration of glucose and without phenol red, was used. After gelification (within 1 h) of the collagen mixture containing the cells, the gels were removed from their culture wells (mould) and interwoven into a receptor hole prepared in a fibrin gel, as previously described (103). The fibrin gel was made from a 0.3% fibrinogen solution in Hank's balanced salt solution. Fibrin was allowed to polymerize with thrombin (stock solution at 1.75 mg/ml) at a ratio of 1:003 v/v fibrin to thrombin. The collagen-fibrin complexes were then covered with serum-supplemented medium according to the cell types. An inhibitor of plasminogen activator (Trasylol, Parke Davies) was added into the medium at 10 μl/ml (100U/ml).
Cell behavior was periodically monitored over 15 days of culture. […]

The test system of data set [2] is Rat aorta rings. The data set can be described thus: Rat aortic ring assay (cell/microvessel migration in fibrin gel). The format is cell-based. The text has this:
FIG. 3: Micrographs of the cell migration from aortic rings embedded in fibrin (×12).
FIG. 4: Quantification of the cell migration from aortic rings in the presence of orthovanadate (plain bars); bpV(phen) (light gray bars); and bpV(pic) (dark gray bars). The control appears as an empty bar. Means and standard errors of the means are presented.
Rat aorta rings were embedded in fibrin matrix as previously described (107). Thoracic aortas excised from adult rats were rinsed in Hank's balanced salt solution (HBSS), and cleansed of periadventitial. One-mm long aortic rings were sectioned and rinsed in culture medium. Each of the aortic rings were then embedded in fibrin gel matrix. Migration of microvessels in fibrin gel was quantified by measuring the distance from the external surface of rat aortic rings towards the migrating vessels. Measurements were performed at day 15 by digitizing morphometry with a NIH image analysis system (FIGS. 3 and 4).

The subject of data set [3] is Human prostate adenocarcinoma (PC-3). The data set can be described thus: Human prostate adenocarcinoma (PC-3) xenograft. The following applies: 5 mg/Kg daily i.p. for 39 days. The data set is classed as in vivo, Male Balb/c nude (nu/nu) mice. As for the experimental part: B) Human prostate adenocarcinoma (PC-3) in the athymic mice: Male Balb/c nude (nu/nu) were purchased at 4-6 weeks of age from Charles Rivers Inc. Mice were housed under pathogen free conditions and maintained on a 12-h light/12-h dark cycle with food and water supplied ad libitum. The hormono-independent PC3 human tumor cells were from the American Tissue Cuture Collection. Cells were grown in DMEM in the presence of 5% foetal bovine serum. Cells were collected at confluence, included in a matrix (1.0×10^6 cells/ml; 30% Matrigel). An equal volume of the tumor cell suspension was injected s.c. in the right flank of each mouse. After 5 days, a palpable tumor of approximately 5×5 mm was detected in the inoculated animals. Mice with palpable tumors were divided into five groups (18 mice/group) for the treatment study. All mice in each treatment group had tumor of similar size at the start of treatment. For administration to mice, bpV(phen) was dissolved and diluted in phosphate buffered saline (PBS) at pH 7.4. A 5 mg/Kg dose of bpV(phen) was administed daily by i.p. for 39 days. Taxol was used as a positive control at the dose of 20 mg/Kg and injected i.p. at every three days. A control group of 10 animals was injected with PBS. The injection volume was kept constant at […]. The mice were weighed three times during the experimental period to assess toxicity of the treatment, and the tumors were measured twice weekly using calipers. Tumor volume was calculated from the two-dimensional caliper measurements using the following formula: tumor volume=length×(width)^2×0.53.
The treatment period was completed after 39 days, when the PBS treated group of mice had large tumors, requiring that the animals be sacrificed according to the Animal Care Procedures. […]
Statistical analysis: Tumor growth curves are presented in terms of treatment group means and SEs. Statistical significance of treatment effect was assessed by repeated measures ANOVA after applying a power transformation to equalize residual variances and linearize the tumor growth curves.
(In general: Xenograft models place foreign cells or tissue in a host animal.)

In the case of `O.O.O.OO.OO.[K+].[OH-].[V].c1cnc2c(c1)ccc1cccnc12` [bpV(phen), potassium bisperoxo(1,10-phenanthroline)oxovanadate], the “progression of PC-3 cells (secondary tumors, migration front)” value in data set [1] (2 μM) was “a decrease in the size of the secondary tumor was observed”; in data set [1] (5 and 10 μM), “there was no migration front and there were no secondary tumors”. For the same compound, the “cell migration from aortic rings” value in data set [2] (1 μM, compared to control) was “impaired”; in data set [2] (3.5 μM) it was “strong inhibition”. Moreover, the deaths result in data set [3] was “No death”. The “suppression of the final tumor compared with PBS-treated control animals” value in data set [3] was 59%. The “body weight gained relative to weight at the initiation of the treatment” value in data set [3] (average) is given as 1.7 grams.
